Source: patent US9326973B2, “Hepatitis C virus inhibitors” (priority 2012, dated 2016)

tested on: HCV replicon, genotype-1a variant with glutamine 30 changed to glutamate in the NS5A protein; assay: microbe, parasite or virus in culture; type: cell-based, HCV genotype 1a; settings: HCV replicon genotype 1a Q30E (Q→E) variant; test compound titrated with an NS5A-targeting compound (BMS-790052 fixed at 200 nM); ranking of synergist activity
Method in brief: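 Synergy was assessed by combining several fixed amounts of an NS5A-targeting compound with a titration of the second compound of interest.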

SMILES | Fold-Synergistic 1a (Q30E)
CC1(C)CCCC(C)(C(=O)N[C@H](c2nc(-c3ccc(-c4ccc(-c5c[nH]c([C@@H](NC(=O)C6(C)CCCC(C)(C)O6)C(C)(C)C)n5)cc4)cc3)c[nH]2)C(C)(C)C)O1 (stereo partly drawn) [Compound W-165] | >100 fold
CCCC[C@@H](CC(=O)OC(C)(C)C)C(=O)N[C@H](c1nc(-c2ccc(-c3ccc(-c4c[nH]c([C@@H](NC(=O)[C@@H](CCCC)CC(=O)OC(C)(C)C)C(C)(C)C)n4)cc3)cc2)c[nH]1)C(C)(C)C [Compound S-260] | >100 fold
CC(C)(C)OC(=O)N[C@]1(C(=O)N[C@H](c2nc(-c3ccc(-c4ccc(-c5c[nH]c([C@@H](NC(=O)[C@@]6(NC(=O)OC(C)(C)C)C[C@H]6C6CC6)C(C)(C)C)n5)cc4)cc3)c[nH]2)C(C)(C)C)C[C@H]1C1CC1 [Compound W-3] | >100 fold
O=C(CCC1CCCC1)N1CCC[C@H]1c1ncc(-c2ccc(-c3ccc(-c4cnc([C@@H]5CCCN5C(=O)CCC5CCCC5)[nH]4)cc3)cc2)[nH]1 [Compound S-166] | >10 fold
CC(C)(Br)C(=O)N[C@H](c1nc(-c2ccc(-c3ccc(-c4c[nH]c([C@@H](NC(=O)C(C)(C)Br)C(C)(C)C)n4)cc3)cc2)c[nH]1)C(C)(C)C [Compound W-149] | >100 fold
CC(C)(C)[C@H](NC(=O)CC1CCCO1)c1nc(-c2ccc(-c3ccc(-c4c[nH]c([C@@H](NC(=O)CC5CCCO5)C(C)(C)C)n4)cc3)cc2)c[nH]1 (stereo partly drawn) [Compound L-70] | >100 fold
CC(C)(C)[C@H](NC(=O)[C@H]1COC(=O)N1)c1nc(-c2ccc(-c3ccc(-c4c[nH]c([C@@H](NC(=O)[C@H]5COC(=O)N5)C(C)(C)C)n4)cc3)cc2)c[nH]1 [Compound L-9] | >10 fold
CC(C)(C)OC(=O)N1[C@H](C(=O)N[C@H](c2nc(-c3ccc(-c4ccc(-c5c[nH]c([C@@H](NC(=O)[C@@H]6COC(C)(C)N6C(=O)OC(C)(C)C)C(C)(C)C)n5)cc4)cc3)c[nH]2)C(C)(C)C)COC1(C)C [Compound L-55] | >100 fold
CC(C)(C)OC(=O)N1CCC[C@@H]1C(=O)N[C@H](c1nc(-c2ccc(-c3ccc(-c4c[nH]c([C@@H](NC(=O)[C@H]5CCCN5C(=O)OC(C)(C)C)C(C)(C)C)n4)cc3)cc2)c[nH]1)C(C)(C)C [Compound W-87] | >100 fold
COC(=O)C1(C(=O)N[C@H](c2nc(-c3ccc(-c4ccc(-c5c[nH]c([C@@H](NC(=O)C6(C(=O)OC)CCCCC6)C(C)(C)C)n5)cc4)cc3)c[nH]2)C(C)(C)C)CCCCC1 [Compound S-273] | >100 fold
COC1CC(C(=O)N[C@H](c2nc(-c3ccc(-c4ccc(-c5c[nH]c([C@@H](NC(=O)C6CC(OC)C6)C(C)(C)C)n5)cc4)cc3)c[nH]2)C(C)(C)C)C1 (stereo partly drawn) [Compound L-54] | >100 fold
CC(C)(C)[C@H](NC(=O)C(=O)N1CCOCC1)c1nc(-c2ccc(-c3ccc(-c4c[nH]c([C@@H](NC(=O)C(=O)N5CCOCC5)C(C)(C)C)n4)cc3)cc2)c[nH]1 [Compound W-25] | >100 fold
CC(C)[C@H](NC(=O)C(C)(C)C)c1nc(-c2ccc(-c3ccc(-c4c[nH]c([C@@H](NC(=O)C(C)(C)C)C(C)C)n4)c(F)c3)cc2)c[nH]1 [Compound N-89] | >100 fold
CC(C)(C)[C@H](NC(=O)[C@@]12CC[C@@](C)(C(=O)O1)C2(C)C)c1nc(-c2ccc(-c3ccc(-c4c[nH]c([C@@H](NC(=O)[C@@]56CC[C@@](C)(C(=O)O5)C6(C)C)C(C)(C)C)n4)cc3)cc2)c[nH]1 [Compound P-170] | >100 fold
CN(C)C(=O)C(C)(C)C(=O)N[C@H](c1nc(-c2ccc(-c3ccc(-c4c[nH]c([C@@H](NC(=O)C(C)(C)C(=O)N(C)C)C(C)(C)C)n4)cc3)cc2)c[nH]1)C(C)(C)C [Compound W-138] | >100 fold
O=C(c1cnccc1C(F)(F)F)N1CCC[C@H]1c1ncc(-c2ccc(-c3ccc(-c4cnc([C@@H]5CCCN5C(=O)c5cnccc5C(F)(F)F)[nH]4)cc3)cc2)[nH]1 [Compound S-134] | <10 fold
CC(C)(C)[C@H](NC(=O)[C@@]1(C)C[C@H]2CC(F)(F)C[C@H]2C1)c1nc(-c2ccc(-c3ccc(-c4c[nH]c([C@@H](NC(=O)[C@@]5(C)C[C@H]6CC(F)(F)C[C@H]6C5)C(C)(C)C)n4)cc3)cc2)c[nH]1 [Compound P-152] | >100 fold
CC1([C@H](NC(=O)[C@H]2C[C@@H]3CC(F)(F)C[C@@H]3C2)c2nc(-c3ccc(-c4ccc(-c5c[nH]c([C@@H](NC(=O)[C@H]6C[C@@H]7CC(F)(F)C[C@@H]7C6)C6(C)CC6)n5)cc4)cc3)c[nH]2)CC1 [Compound P-140] | >100 fold
O=C(CC(F)(F)F)N1CCC[C@H]1c1ncc(-c2ccc(-c3ccc(-c4cnc([C@@H]5CCCN5C(=O)CC(F)(F)F)[nH]4)cc3)cc2)[nH]1 [Compound S-193] | <10 fold
CC(C)[C@H](NC(=O)[C@@H]1C[C@@H](O)CN1C(=O)OC(C)(C)C)c1nc(-c2ccc(-c3ccc(-c4c[nH]c([C@@H](NC(=O)[C@@H]5C[C@@H](O)CN5C(=O)OC(C)(C)C)C(C)C)n4)cc3)cc2)c[nH]1 [Compound W-97] | >100 fold

SMILES | Fold-Synergistic 1a (Q30E)
O=C(c1cnc2n(c1=O)CCS2)N1CCC[C@H]1c1ncc(-c2ccc(-c3ccc(-c4cnc([C@@H]5CCCN5C(=O)c5cnc6n(c5=O)CCS6)[nH]4)cc3)cc2)[nH]1 [Compound S-135] | <10 fold
CC(C)(C)[C@H](NC(=O)C(C)(C)[C@]1(O)C[C@H]2CC(F)(F)C[C@H]2C1)c1nc(-c2ccc(-c3ccc(-c4c[nH]c([C@@H](NC(=O)C(C)(C)[C@]5(O)C[C@H]6CC(F)(F)C[C@H]6C5)C(C)(C)C)n4)cc3)cc2)c[nH]1 [Compound P-157] | >100 fold
CC(C)(C)[C@H](NC(=O)C(F)(F)C(O)c1cccnc1)c1nc(-c2ccc(-c3ccc(-c4c[nH]c([C@@H](NC(=O)C(F)(F)C(O)c5cccnc5)C(C)(C)C)n4)cc3)cc2)c[nH]1 (stereo partly drawn) [Compound S-283] | >100 fold
CC(C)(C)[C@H](NC(=O)C1CCC2(CC1)CC2)c1nc(-c2ccc(-c3ccc(-c4c[nH]c([C@@H](NC(=O)C5CCC6(CC5)CC6)C(C)(C)C)n4)cc3)cc2)c[nH]1 (stereo partly drawn) [Compound N-123] | >100 fold
CC(C)[C@H](NC(=O)c1cc(Cl)ccc1F)c1nc(-c2ccc(-c3ccc(-c4c[nH]c([C@@H](NC(=O)c5cc(Cl)ccc5F)C(C)C)n4)cc3F)cc2)c[nH]1 [Compound N-99] | >100 fold
C[C@H]1CCN(C(=O)C(=O)N2CCC(F)(F)CC2)C1c1nc(-c2ccc(-c3ccc(-c4c[nH]c([C@@H]5[C@@H](C)CCN5C(=O)C(=O)N5CCC(F)(F)CC5)n4)cc3)cc2)c[nH]1 (stereo partly drawn) [Compound W-187] | >100 fold
C=C1C[C@@H](C(=O)N[C@H](c2nc(-c3ccc(-c4ccc(-c5c[nH]c([C@@H](NC(=O)[C@@H]6CC(=C)CN6C(=O)OC(C)(C)C)C(C)(C)C)n5)cc4)cc3)c[nH]2)C(C)(C)C)N(C(=O)OC(C)(C)C)C1 [Compound W-91] | >100 fold
COC(=O)N[C@H](C(=O)NC(C)(C)c1nc(-c2ccc(-c3ccc(-c4c[nH]c(C(C)(C)NC(=O)[C@@H](NC(=O)OC)C(C)C)n4)cc3)cc2)c[nH]1)C(C)C [Compound N-25] | <10 fold
CC(C)(C)[C@H](NC(=O)C1(CF)CCCO1)c1nc(-c2ccc(-c3ccc(-c4c[nH]c([C@@H](NC(=O)C5(CF)CCCO5)C(C)(C)C)n4)cc3)cc2)c[nH]1 (stereo partly drawn) [Compound P-161] | >100 fold
Cc1nn(C)c2ncc(C(=O)N3CCC[C@H]3c3ncc(-c4ccc(-c5ccc(-c6cnc([C@@H]7CCCN7C(=O)c7cnc8c(c(C)nn8C)c7Cl)[nH]6)cc5)cc4)[nH]3)c(Cl)c12 [Compound S-132] | <10 fold
CC(C)(C)OC(=O)NC1(C(=O)N[C@H](c2nc(-c3ccc(-c4ccc(-c5c[nH]c([C@@H](NC(=O)C6(NC(=O)OC(C)(C)C)CCOCC6)C(C)(C)C)n5)cc4)cc3)c[nH]2)C(C)(C)C)CCOCC1 [Compound W-132] | >100 fold
COc1cnc(C(=O)N2CCC[C@H]2c2ncc(-c3ccc(-c4ccc(-c5cnc([C@@H]6CCCN6C(=O)c6ncc(OC)c7ccccc67)[nH]5)cc4)cc3)[nH]2)c2ccccc12 [Compound S-199] | >100 fold
Cn1cccc1C(=O)N1CCC[C@H]1c1ncc(-c2ccc(-c3ccc(-c4cnc([C@@H]5CCCN5C(=O)c5cccn5C)[nH]4)cc3)cc2)[nH]1 [Compound S-175] | <10 fold
CC(C)(C(=O)N[C@H](c1nc(-c2ccc(-c3ccc(-c4c[nH]c([C@@H](NC(=O)C(C)(C)C(=O)N5CCC(F)(F)CC5)C(C)(C)C)n4)cc3)cc2)c[nH]1)C(C)(C)C)C(=O)N1CCC(F)(F)CC1 [Compound W-141] | >100 fold
CC(C)N(CC(F)(F)F)C(=O)C(=O)N[C@H](c1nc(-c2ccc(-c3ccc(-c4c[nH]c([C@@H](NC(=O)C(=O)N(CC(F)(F)F)C(C)C)C(C)(C)C)n4)cc3)cc2)c[nH]1)C(C)(C)C [Compound W-66] | >100 fold
CC(C)(C)[C@H](NC(=O)[C@@H]1CCC[C@@H]1O)c1nc(-c2ccc(-c3ccc(-c4c[nH]c([C@@H](NC(=O)[C@@H]5CCC[C@@H]5O)C(C)(C)C)n4)cc3)cc2)c[nH]1 [Compound P-171] | >100 fold
CC(C)(C)[C@H](NC(=O)C(F)(F)C1(O)CCOCC1)c1nc(-c2ccc(-c3ccc(-c4c[nH]c([C@@H](NC(=O)C(F)(F)C5(O)CCOCC5)C(C)(C)C)n4)cc3)cc2)c[nH]1 [Compound P-163] | >100 fold
CCC(C)[C@H](NC(=O)[C@@H](NC(=O)OC)C(C)C)c1nc(-c2ccc(-c3ccc(-c4c[nH]c([C@@H](NC(=O)[C@@H](NC(=O)OC)C(C)C)C(C)CC)n4)cc3)cc2)c[nH]1 (stereo partly drawn) [Compound N-33] | >10 fold
CC(C)(C)OC(=O)N1C[C@H]2CC2[C@H]1C(=O)N[C@H](c1nc(-c2ccc(-c3ccc(-c4c[nH]c([C@@H](NC(=O)[C@@H]5C6C[C@@H]6CN5C(=O)OC(C)(C)C)C5(C)CC5)n4)cc3)cc2)c[nH]1)C1(C)CC1 (stereo partly drawn) [Compound W-75] | >100 fold
